{
  "source": "patent US20040106120A1",
  "about": "“Diagnosis and treatment of disease” (priority 2000, published 2004)",
  "key": {"[1]": {"system": "corneodesmosomes in stratum corneum tape strips", "assay": "Treatment of tape strips from psoriatic skin with proteases, corneodesmosome density by electron microscopy", "parameters": "species or system human", "details": "22-50 nM recombinant SCCE or SCTE, 1-6 h at 37° C", "protocol": "Tape strips are obtained according to a method described by Guerrin et al, 1998.\nSmall pieces of tape strips from control patients along with patients suffering from the skin conditions eczema, psoriasis, dermatitis and psoriasis are fixed for 2 h at 4° C. in Karnovsky fixative (2% paraformaldehyde, 2.5% gluteraldehyde in 0.1M phosphate buffer, pH 7.4). The samples are then washed three times in 0.1M phosphate buffer (pH7.4) containing 10% sucrose for 30 minutes each at 4° C.\nSecondary fixation is carried out in aqueous 2% osmium tetroxide solution for 1 hour at room temperature. Dehydration is through a graded series of ethanol at room temperature (75% ethanol for 15 minutes; 95% ethanol for 15 minutes; 2 washes of 100% ethanol for 15 minutes; 100% ethanol dried over anhydrous copper sulphate for 15 minutes).\nFor resin embedding, samples are first placed in the intermediate solvent, propylene oxide, for two changes of 15 minutes duration. This is followed by infiltration in a 50:50 mixture of propylene oxide:araldite resin overnight at room temperature. […]\nUltrathin sections (70-90 nm) are cut on an ultramicrotome. […] Electron micrographs are recorded on Agfa Scientific 23D56 EM film.\nCorneodesmosome density (area occupied by corneodesmosomes divided by total area of micrograph) is measured on electron micrographs of tape strips of each condition. […]"}, "Desmoplakin": {"system": "Desmoplakin", "assay": "Cleavage of adhesion proteins from human epidermis by recombinant SCCE/SCTE (immunoblot)", "format": "biochemical", "details": "human epidermis protein extract incubated with active recombinant enzyme at 37 C", "protocol": "(§1) Recombinant ProSCCE is produced and purified as described above. Recombinant ProSCCE is activated with agarose-bound trypsin, as described in Brasttsand & Egelrud, 1999.\n(§2) Proteins are extracted from human epidermis in the presence of a detergent (TENP-40 buffer extract) and incubated with active SCCE for 37 C. for 4 h. The reactions are stopped by boiling for 2 mins after Laemmli's sample buffer is added. The proteins are immunoblotted with antibodies against corneodesmosomal proteins."}, "Plakoglobin": {"target": "T1, Plakoglobin (Homo sapiens, UniProt P14923)", "T1 construct": "The native form of plakoglobin has a molecular weight of between 85 kDa and 75 kDa; from tissue; host or cells: human epidermis (TENP-40 buffer extract)", "T1 sequence (P14923 1-745)": "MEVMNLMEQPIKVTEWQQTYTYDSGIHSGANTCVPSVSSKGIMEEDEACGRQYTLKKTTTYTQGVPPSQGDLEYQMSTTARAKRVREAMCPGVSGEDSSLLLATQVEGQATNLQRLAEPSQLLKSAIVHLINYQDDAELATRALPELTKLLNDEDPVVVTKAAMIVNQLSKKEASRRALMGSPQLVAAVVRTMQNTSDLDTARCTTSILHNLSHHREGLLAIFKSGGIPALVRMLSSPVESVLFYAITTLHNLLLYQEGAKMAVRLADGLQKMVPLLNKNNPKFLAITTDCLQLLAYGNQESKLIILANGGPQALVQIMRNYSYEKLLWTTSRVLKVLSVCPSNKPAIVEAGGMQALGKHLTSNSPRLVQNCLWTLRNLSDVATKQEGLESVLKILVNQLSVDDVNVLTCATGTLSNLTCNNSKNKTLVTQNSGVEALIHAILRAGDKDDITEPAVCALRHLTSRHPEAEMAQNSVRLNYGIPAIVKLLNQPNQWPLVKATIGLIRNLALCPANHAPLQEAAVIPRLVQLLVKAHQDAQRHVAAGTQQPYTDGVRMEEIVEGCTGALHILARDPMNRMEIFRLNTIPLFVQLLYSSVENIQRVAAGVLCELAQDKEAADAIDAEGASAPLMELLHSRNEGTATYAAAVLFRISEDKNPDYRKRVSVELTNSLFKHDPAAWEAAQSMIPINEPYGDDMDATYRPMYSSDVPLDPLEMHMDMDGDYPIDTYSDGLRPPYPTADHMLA", "assay": "Cleavage of adhesion proteins from human epidermis by recombinant SCCE/SCTE (immunoblot)", "format": "biochemical", "details": "human epidermis protein extract incubated with active recombinant enzyme at 37 C", "protocol": "as §1, §2"}, "Corneodesmosin": {"target": "T2, Corneodesmosin (Homo sapiens, UniProt Q15517)", "T2 construct": "The native form of corneodesmosin has a molecular weight of between 50 and 56 kDa; from tissue; host or cells: human epidermis (TENP-40 buffer extract)", "T2 sequence (Q15517 33-529)": "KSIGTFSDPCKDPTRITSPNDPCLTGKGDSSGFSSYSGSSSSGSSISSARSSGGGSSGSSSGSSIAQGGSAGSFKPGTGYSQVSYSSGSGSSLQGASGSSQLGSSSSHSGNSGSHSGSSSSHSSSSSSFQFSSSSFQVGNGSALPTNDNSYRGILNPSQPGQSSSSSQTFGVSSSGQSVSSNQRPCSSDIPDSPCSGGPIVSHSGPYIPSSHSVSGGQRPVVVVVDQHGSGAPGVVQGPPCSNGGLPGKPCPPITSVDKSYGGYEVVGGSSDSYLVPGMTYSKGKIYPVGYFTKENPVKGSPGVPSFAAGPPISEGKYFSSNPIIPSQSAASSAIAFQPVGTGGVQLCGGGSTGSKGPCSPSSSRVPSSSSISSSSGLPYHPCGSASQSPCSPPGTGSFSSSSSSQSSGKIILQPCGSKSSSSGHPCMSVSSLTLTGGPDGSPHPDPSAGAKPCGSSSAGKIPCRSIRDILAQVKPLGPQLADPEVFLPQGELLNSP", "assay": "Cleavage of adhesion proteins from human epidermis by recombinant SCCE/SCTE (immunoblot)", "format": "biochemical", "details": "human epidermis protein extract incubated with active recombinant enzyme at 37 C", "protocol": "as §1, §2"}, "Desmocollin": {"system": "Desmocollin", "assay": "Cleavage of adhesion proteins from human epidermis by recombinant SCCE/SCTE (immunoblot)", "format": "biochemical", "details": "human epidermis protein extract incubated with active recombinant enzyme at 37 C", "protocol": "as §1, §2"}, "Envoplakin": {"target": "T3, Envoplakin (Homo sapiens, UniProt Q92817)", "T3 construct": "The native form of Envoplakin has a molecular weight of between 124-209 kDa; from tissue; host or cells: human epidermis (TENP-40 buffer extract)", "T3 sequence (Q92817 whole entry)": "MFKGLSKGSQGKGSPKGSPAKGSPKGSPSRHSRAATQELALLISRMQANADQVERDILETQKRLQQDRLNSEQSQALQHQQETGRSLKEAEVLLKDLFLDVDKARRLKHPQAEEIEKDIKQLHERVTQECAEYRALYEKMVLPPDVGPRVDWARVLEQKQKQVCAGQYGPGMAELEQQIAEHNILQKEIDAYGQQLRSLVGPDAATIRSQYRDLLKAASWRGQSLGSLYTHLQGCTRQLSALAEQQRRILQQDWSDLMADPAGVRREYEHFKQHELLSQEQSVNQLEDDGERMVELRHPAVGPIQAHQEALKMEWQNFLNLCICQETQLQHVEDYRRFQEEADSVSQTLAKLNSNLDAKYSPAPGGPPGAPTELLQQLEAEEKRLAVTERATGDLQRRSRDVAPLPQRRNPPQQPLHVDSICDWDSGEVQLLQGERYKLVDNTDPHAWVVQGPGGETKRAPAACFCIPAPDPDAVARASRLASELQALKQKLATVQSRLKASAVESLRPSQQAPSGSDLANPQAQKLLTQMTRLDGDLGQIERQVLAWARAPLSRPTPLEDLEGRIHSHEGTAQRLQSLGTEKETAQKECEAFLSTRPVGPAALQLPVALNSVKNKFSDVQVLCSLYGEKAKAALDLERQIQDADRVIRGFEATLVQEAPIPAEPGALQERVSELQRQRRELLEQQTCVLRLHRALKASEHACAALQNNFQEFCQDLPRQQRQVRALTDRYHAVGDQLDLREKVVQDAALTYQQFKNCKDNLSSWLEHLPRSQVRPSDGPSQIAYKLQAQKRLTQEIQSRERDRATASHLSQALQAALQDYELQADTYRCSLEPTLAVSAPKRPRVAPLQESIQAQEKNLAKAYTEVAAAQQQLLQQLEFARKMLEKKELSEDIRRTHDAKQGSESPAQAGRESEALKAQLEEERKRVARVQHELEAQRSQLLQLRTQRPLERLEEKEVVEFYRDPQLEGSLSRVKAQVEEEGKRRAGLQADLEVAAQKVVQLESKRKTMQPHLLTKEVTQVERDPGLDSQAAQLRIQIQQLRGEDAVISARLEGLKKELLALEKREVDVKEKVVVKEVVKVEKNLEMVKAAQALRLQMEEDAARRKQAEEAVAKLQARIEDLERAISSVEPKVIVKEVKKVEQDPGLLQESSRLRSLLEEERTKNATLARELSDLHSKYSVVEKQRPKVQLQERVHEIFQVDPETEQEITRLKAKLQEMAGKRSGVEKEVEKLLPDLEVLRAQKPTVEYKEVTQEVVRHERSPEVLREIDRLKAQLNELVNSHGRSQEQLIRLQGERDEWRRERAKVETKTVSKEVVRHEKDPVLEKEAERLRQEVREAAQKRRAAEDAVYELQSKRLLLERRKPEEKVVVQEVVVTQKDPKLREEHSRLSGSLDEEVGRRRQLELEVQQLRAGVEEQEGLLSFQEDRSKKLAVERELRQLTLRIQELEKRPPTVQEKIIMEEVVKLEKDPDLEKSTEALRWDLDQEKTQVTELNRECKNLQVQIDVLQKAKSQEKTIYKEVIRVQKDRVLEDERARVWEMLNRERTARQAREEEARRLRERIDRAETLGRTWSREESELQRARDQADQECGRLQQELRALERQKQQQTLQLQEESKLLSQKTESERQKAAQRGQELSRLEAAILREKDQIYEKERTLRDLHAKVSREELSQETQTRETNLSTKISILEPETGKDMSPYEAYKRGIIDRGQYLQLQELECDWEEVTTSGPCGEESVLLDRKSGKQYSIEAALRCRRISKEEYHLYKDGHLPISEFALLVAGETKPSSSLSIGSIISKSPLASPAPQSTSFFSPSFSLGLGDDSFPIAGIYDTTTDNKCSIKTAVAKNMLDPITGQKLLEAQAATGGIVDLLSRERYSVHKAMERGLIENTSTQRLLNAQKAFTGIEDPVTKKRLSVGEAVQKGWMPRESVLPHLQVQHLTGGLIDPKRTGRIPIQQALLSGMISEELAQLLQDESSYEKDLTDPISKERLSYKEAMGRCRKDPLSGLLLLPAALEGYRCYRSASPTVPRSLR", "assay": "Cleavage of adhesion proteins from human epidermis by recombinant SCCE/SCTE (immunoblot)", "format": "biochemical", "details": "human epidermis protein extract incubated with active recombinant enzyme at 37 C", "protocol": "as §1, §2"}, "Desmoglein": {"system": "Desmoglein", "assay": "Cleavage of adhesion proteins from human epidermis by recombinant SCCE/SCTE (immunoblot)", "format": "biochemical", "details": "human epidermis protein extract incubated with active recombinant enzyme at 37 C", "protocol": "as §1, §2"}},
  "data": [
    {"substance": "SCTE: recombinant Stratum Corneum Tryptic Enzyme expressed in an active form", "values": [
      {"measurement": "number of corneodesmosomes in treated versus untreated stratum corneum", "setting": "[1]", "value": "decrease significantly"},
      {"measurement": "proteolysis of Desmoplakin", "setting": "Desmoplakin", "value": "proteolysed"},
      {"measurement": "proteolysis of Plakoglobin", "setting": "Plakoglobin", "value": "proteolysed"},
      {"measurement": "proteolysis of Corneodesmosin", "setting": "Corneodesmosin", "value": "proteolysed"},
      {"measurement": "proteolysis of Desmocollin", "setting": "Desmocollin", "value": "proteolysed"},
      {"measurement": "proteolysis of Envoplakin", "setting": "Envoplakin", "value": "proteolysed"},
      {"measurement": "proteolysis of Desmoglein", "setting": "Desmoglein", "value": "proteolysed"}
    ]}
  ]
}
